Source: patent US20060069132A1, “Azolecarboxamide herbicides” (priority 2004, published 2006)

Key:
Surinam grass = test: Test C pre-/postemergence herbicide test; assay type: in vivo, Urochloa decumbens; settings: for Plant response rating (0 = no effect, 100 = complete control), Surinam Grass / Plant response rating, Surinam Grass: preemergence
Method in brief: (§1)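 Preemergence: seeds planted and treated with compound in non-phytotoxic solvent with surfactant; postemergence: plants at 2 to 18 cm (1- to 4-leaf stage) sprayed likewise. Kept in greenhouse 12 to 14 days, then visually rated against controls, 0 (no effect) to 100 (complete control).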

rice = test: Test C flooded paddy test; assay type: in vivo, Oryza sativa; settings: for Plant response rating, Rice: 500 g ai/ha, visual rating after 12 to 14 days
Method in brief: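 Injury scored visually against controls on a 0 (no effect) to 100 (complete control) scale, 12 to 14 days after treatment in greenhouse. Flooded paddy plants treated at 2-leaf stage; postemergence plants at 1- to 4-leaf stage, 2 to 18 cm tall.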

kochia = test: Test C pre-/postemergence herbicide test; assay type: in vivo, Kochia scoparia; settings: for Plant response rating (0 = no effect, 100 = complete control), Kochia / Plant response rating, Kochia: preemergence
Method in brief: as §1

lambsquarters = test: Test C pre-/postemergence herbicide test; assay type: in vivo, Chenopodium album; settings: for Plant response rating (0 = no effect, 100 = complete control), Lambsquarters / Plant response rating, Lambsquarters: preemergence
Method in brief: as §1

ducksalad = test: Test C flooded paddy test; assay type: in vivo, Heteranthera limosa; settings: for Plant response rating, Ducksalad: 500 g ai/ha, visual rating after 12 to 14 days
pigweed = test: Test C pre-/postemergence herbicide test; assay type: in vivo, Amaranthus retroflexus; settings: for Plant response rating (0 = no effect, 100 = complete control), Pigweed / Plant response rating, Pigweed: preemergence
Method in brief: as §1

corn = test: Test C pre-/postemergence herbicide test; assay type: in vivo, Zea mays; settings: for Plant response rating (0 = no effect, 100 = complete control), Corn / Plant response rating, Corn: preemergence
Method in brief: as §1

velvetleaf = test: Test C pre-/postemergence herbicide test; assay type: in vivo, Abutilon theophrasti; settings: for Plant response rating (0 = no effect, 100 = complete control), Velvetleaf / Plant response rating, Velvetleaf: preemergence
Method in brief: as §1

[1] = 125 g ai/ha, scale 0 (no effect) to 100 (complete control), visual, 12 to 14 days
[2] = 250 g ai/ha, scale 0 to 100 (0 no effect, 100 complete control), visual, 12 to 14 days
[3] = Preemergence, 500 g ai/ha, scale 0 to 100, 0 no effect, 100 complete control
[4] = 62 g ai/ha, scale 0 to 100 (0 no effect, 100 complete control)
[5] = 125 g ai/ha, scale of 0 to 100, 0 is no effect, 100 is complete control
[6] = 250 g ai/ha, scale of 0 to 100, 0 is no effect, 100 is complete control
[7] = scale 0 to 100 (0 no effect, 100 complete control)
[8] = 500 g ai/ha, scale 0 to 100 (0 no effect, 100 complete control), visual, 12 to 14 days
[9] = 125 g ai/ha, scale 0 to 100 (0 no effect, 100 complete control)

SMILES: C=CCn1nc(C(C)(C)C)cc1C(=O)Nc1cccc(C(=O)NCC)c1 [Compound 56]
- Plant response rating (0 = no effect, 100 = complete control), Surinam Grass (Surinam grass; 62 g ai/ha): 10
- Plant response rating, Surinam Grass (Surinam grass; [1]): 15
- Plant response rating, Surinam Grass (Surinam grass; [2]): 60
- Surinam Grass plant response rating (Surinam grass; [3]): 75
- Rice plant response rating (rice; [4]): 0
- Rice plant response rating (rice; [5]): 15
- Rice plant response rating (rice; [6]): 25
- Plant response rating, Rice (rice; [7]): 35
- Plant response rating (0 = no effect, 100 = complete control), Kochia (kochia; 62 g ai/ha): 75
- Plant response rating, Kochia (kochia; [1]): 90
- Plant response rating, Kochia (kochia; [2]): 95
- Kochia plant response rating (kochia; [3]): 95
- Plant response rating (0 = no effect, 100 = complete control), Lambsquarters (lambsquarters; 62 g ai/ha): 85
- Plant response rating, Lambsquarters (lambsquarters; [1]): 100
- Plant response rating, Lambsquarters (lambsquarters; [2]): 100
- Lambsquarters plant response rating (lambsquarters; [3]): 100
- Ducksalad plant response rating (ducksalad; [4]): 15
- Ducksalad plant response rating (ducksalad; [5]): 55
- Ducksalad plant response rating (ducksalad; [6]): 70
- Plant response rating, Ducksalad (ducksalad; [7]): 75
- Plant response rating (0 = no effect, 100 = complete control), Pigweed (pigweed; 62 g ai/ha): 100
- Plant response rating, Pigweed (pigweed; [1]): 100
- Plant response rating, Pigweed (pigweed; [2]): 100
- Pigweed plant response rating (pigweed; [3]): 100
- Plant response rating (0 = no effect, 100 = complete control), Corn (corn; 62 g ai/ha): 0
- Plant response rating, Corn (corn; [1]): 0
- Plant response rating, Corn (corn; [2]): 0
- Corn plant response rating (corn; [3]): 0
- Plant response rating (0 = no effect, 100 = complete control), Velvetleaf (velvetleaf; 62 g ai/ha): 20
- Plant response rating, Velvetleaf (velvetleaf; [1]): 35
- Plant response rating, Velvetleaf (velvetleaf; [2]): 50
- Velvetleaf plant response rating (velvetleaf; [3]): 100

SMILES: CCn1nc(C2(C)CC2)cc1C(=O)Nc1cc(C(=O)N2CC=CC2)ccc1F [Compound 301]
- Plant response rating, Surinam Grass (Surinam grass; 62 g ai/ha, scale 0 to 100): 0
- Plant response rating, Surinam Grass (Surinam grass; 250 g ai/ha, scale 0-100): 80
- Plant response rating, Surinam Grass (Surinam grass; [8]): 90
- Rice plant response rating (rice; 62 g ai/ha, scale 0 to 100): 50
- Rice plant response rating (rice; [9]): 55
- Rice plant response rating (rice; [6]): 75
- Plant response rating, Rice (rice; [7]): 85
- Plant response rating, Kochia (kochia; 62 g ai/ha, scale 0 to 100): 100
- Plant response rating, Kochia (kochia; [1]): 100
- Plant response rating, Kochia (kochia; 250 g ai/ha, scale 0-100): 100
- Plant response rating, Kochia (kochia; [8]): 100
- Plant response rating, Lambsquarters (lambsquarters; 62 g ai/ha, scale 0 to 100): 100
- Plant response rating, Lambsquarters (lambsquarters; [1]): 100
- Plant response rating, Lambsquarters (lambsquarters; 250 g ai/ha, scale 0-100): 100
- Plant response rating, Lambsquarters (lambsquarters; [8]): 100
- Ducksalad plant response rating (ducksalad; 62 g ai/ha, scale 0 to 100): 85
- Ducksalad plant response rating (ducksalad; [9]): 90
- Ducksalad plant response rating (ducksalad; [6]): 90
- Plant response rating, Ducksalad (ducksalad; [7]): 95
- Plant response rating, Pigweed (pigweed; 62 g ai/ha, scale 0 to 100): 100
- Plant response rating, Pigweed (pigweed; [1]): 100
- Plant response rating, Pigweed (pigweed; 250 g ai/ha, scale 0-100): 100
- Plant response rating, Pigweed (pigweed; [8]): 100
- Plant response rating, Corn (corn; 62 g ai/ha, scale 0 to 100): 10
- Plant response rating, Corn (corn; [1]): 10
- Plant response rating, Corn (corn; 250 g ai/ha, scale 0-100): 40
- Plant response rating, Corn (corn; [8]): 45
- Plant response rating, Velvetleaf (velvetleaf; 62 g ai/ha, scale 0 to 100): 20
- Plant response rating, Velvetleaf (velvetleaf; 250 g ai/ha, scale 0-100): 100
- Plant response rating, Velvetleaf (velvetleaf; [8]): 100

SMILES: CCN1N=C(C(C)(C)C)CC1C(=O)Nc1cc(C(=O)N2CC=CC2)ccc1F (racemic) [Compound 310]
- Plant response rating, Surinam Grass (Surinam grass; 62 g ai/ha, scale 0 to 100): 5
- Plant response rating, Surinam Grass (Surinam grass; 250 g ai/ha, scale 0-100): 30
- Plant response rating, Surinam Grass (Surinam grass; [8]): 50
- Rice plant response rating (rice; 62 g ai/ha, scale 0 to 100): 35
- Rice plant response rating (rice; [9]): 60
- Rice plant response rating (rice; [6]): 70
- Plant response rating, Rice (rice; [7]): 80
- Plant response rating, Kochia (kochia; 62 g ai/ha, scale 0 to 100): 95
- Plant response rating, Kochia (kochia; [1]): 100
- Plant response rating, Kochia (kochia; 250 g ai/ha, scale 0-100): 100
- Plant response rating, Kochia (kochia; [8]): 100
- Plant response rating, Lambsquarters (lambsquarters; 62 g ai/ha, scale 0 to 100): 95
- Plant response rating, Lambsquarters (lambsquarters; [1]): 100
- Plant response rating, Lambsquarters (lambsquarters; 250 g ai/ha, scale 0-100): 100
- Plant response rating, Lambsquarters (lambsquarters; [8]): 100
- Ducksalad plant response rating (ducksalad; 62 g ai/ha, scale 0 to 100): 45
- Ducksalad plant response rating (ducksalad; [9]): 75
- Ducksalad plant response rating (ducksalad; [6]): 80
- Plant response rating, Ducksalad (ducksalad; [7]): 90
- Plant response rating, Pigweed (pigweed; 62 g ai/ha, scale 0 to 100): 100
- Plant response rating, Pigweed (pigweed; [1]): 100
- Plant response rating, Pigweed (pigweed; 250 g ai/ha, scale 0-100): 100
- Plant response rating, Pigweed (pigweed; [8]): 100
- Plant response rating, Corn (corn; [1]): 0
- Plant response rating, Corn (corn; 250 g ai/ha, scale 0-100): 5
- Plant response rating, Corn (corn; [8]): 10
- Plant response rating, Velvetleaf (velvetleaf; 62 g ai/ha, scale 0 to 100): 0
- Plant response rating, Velvetleaf (velvetleaf; 250 g ai/ha, scale 0-100): 10
- Plant response rating, Velvetleaf (velvetleaf; [8]): 100

SMILES: C=CCNC(=O)c1cccc(NC(=O)c2nn(C(C)C)nc2CC)c1 [Compound 382]
- Plant response rating (0 = no effect, 100 = complete control), Surinam Grass (Surinam grass; 125 g ai/ha): 95
- Plant response rating, Surinam Grass (Surinam grass; 250 g ai/ha, scale 0-100): 100
- Plant response rating, Surinam Grass (Surinam grass; [8]): 100
- Rice plant response rating (rice; 62 g ai/ha, scale 0 to 100): 20
- Rice plant response rating (rice; [9]): 55
- Rice plant response rating (rice; [6]): 70
- Plant response rating, Rice (rice; [7]): 75
- Plant response rating, Kochia (kochia; 62 g ai/ha, scale 0 to 100): 0
- Plant response rating (0 = no effect, 100 = complete control), Kochia (kochia; 125 g ai/ha): 20
- Plant response rating, Kochia (kochia; 250 g ai/ha, scale 0-100): 95
- Plant response rating, Kochia (kochia; [8]): 100
- Plant response rating, Lambsquarters (lambsquarters; 62 g ai/ha, scale 0 to 100): 90
- Plant response rating (0 = no effect, 100 = complete control), Lambsquarters (lambsquarters; 125 g ai/ha): 100
- Plant response rating, Lambsquarters (lambsquarters; 250 g ai/ha, scale 0-100): 100
- Plant response rating, Lambsquarters (lambsquarters; [8]): 100
- Ducksalad plant response rating (ducksalad; 62 g ai/ha, scale 0 to 100): 25
- Ducksalad plant response rating (ducksalad; [9]): 65
- Ducksalad plant response rating (ducksalad; [6]): 80
- Plant response rating, Ducksalad (ducksalad; [7]): 85
- Plant response rating, Pigweed (pigweed; 62 g ai/ha, scale 0 to 100): 95
- Plant response rating (0 = no effect, 100 = complete control), Pigweed (pigweed; 125 g ai/ha): 95
- Plant response rating, Pigweed (pigweed; 250 g ai/ha, scale 0-100): 100
- Plant response rating, Pigweed (pigweed; [8]): 100
- Plant response rating, Corn (corn; 62 g ai/ha, scale 0 to 100): 0
- Plant response rating (0 = no effect, 100 = complete control), Corn (corn; 125 g ai/ha): 50
- Plant response rating, Corn (corn; 250 g ai/ha, scale 0-100): 55
- Plant response rating, Corn (corn; [8]): 60
- Plant response rating, Velvetleaf (velvetleaf; 62 g ai/ha, scale 0 to 100): 100
- Plant response rating (0 = no effect, 100 = complete control), Velvetleaf (velvetleaf; 125 g ai/ha): 100
- Plant response rating, Velvetleaf (velvetleaf; 250 g ai/ha, scale 0-100): 100
- Plant response rating, Velvetleaf (velvetleaf; [8]): 100
